Results published in patent US9126952B2, “Morpholinylquinazolines” (Merck Patent GmbH, priority 2010, dated 2015).
Read-outs that look alike come from different tables or passages of the source.

Tests used:
[1] = system: kinases of the PI3K isoenzyme family; details: cited from earlier work
[2] = system: mammal cells; details: Rosenzweig et al. (1999); cited from earlier work
[3] = target: T1, DNA-PK (Homo sapiens (Human), UniProt P78527); details: ATP-competitive; Hardcastle et al. (2005); cited from earlier work
[4] = target: T1, DNA-PK; test: DNA-PK/biochemical assay (FlashPlate kinase assay); details: 5 μM ATP, 90 min, room temperature; read-out: Binding DNA-PK IC50
Method: […] To this end, 1.5 μg of the DNA-PK/protein complex and 100 ng of biotinylated substrate, such as, for example, PESQEAFADLWKK biotin-NH2 (“biotin-DNA-PK peptide”), in a total volume of 36.5 μl (34.25 mM HEPES/KOH, 7.85 mM Tris-HCl, 68.5 mM KCl, 5 μM ATP, 6.85 mM MgCl2, 0.5 mM EDTA, 0.14 mM EGTA, 0.69 mM DTT, pH 7.4), were incubated at room temperature for 90 min with 500 ng of DNA from calf thymus, 0.1 μCi of 33P-ATP and 1.8% of DMSO per well with or without the test compound. The reaction was stopped using 50 μl/well of 200 mM EDTA. After incubation for a further 30 min at room temperature, the liquid was removed. Each well was washed three times with 100 μl of 0.9% sodium chloride solution. A non-specific reaction (blank value) was determined using 10 μM of a proprietary kinase inhibitor. The radioactivity measurement was carried out by means of a TopCount. IC50 values were calculated in RS1. • Literature: Kashishian et al. (2003) Molecular Cancer Therapeutics 1257.

CCN1CCN(CC(=O)Nc2ccc(-c3cccc4c(=O)cc(N5CCOCC5)oc34)c3sc4ccccc4c23)CC1 [KU-0060648]
inhibition of PI3K isoenzyme family kinases [1]: potently inhibited

O=c1cc(N2CCOCC2)oc2c(-c3ccccc3)cccc12 [LY294002]
increase in sensitivity to ionising irradiation in cellular terms [2]: only a weak increase in sensitivity to ionising irradiation

O=c1cc(N2CCOCC2)oc2c(-c3cccc4c3sc3ccccc34)cccc12 [NU-7441]
IC50 [3]: 20 nM

Cc1cnc(C(O)C2CCCN(c3ncnc4cc(N5CCOCC5)ccc34)C2)s1 (stereo not drawn) [compound 47, (5-Methyl-thiazol-2-yl)-[1-(7-morpholin-4-ylquinazolin-4-yl)-piperidin-3-yl]-methanol]
IC50 [4]: < 100 nM

Cc1nc(C(O)C2CCCN(c3ncnc4cc(N5CCOCC5)ccc34)C2)sc1C (stereo not drawn) [compound 48, (4,5-Dimethyl-thiazol-2-yl)-[1-(7-morpholin-4-yl-quinazolin-4-yl)-piperidin-3-yl]-methanol]
IC50 [4]: < 100 nM

Cc1csc(C(O)C2CCCN(c3ncnc4cc(N5CCOCC5)ccc34)C2)n1 (stereo not drawn) [compound 49, (4-Methylthiazol-2-yl)-[1-(7-morpholin-4-ylquinazolin-4-yl)-piperidin-3-yl]-methanol]
IC50 [4]: < 100 nM

O=C(c1nccs1)C1CCCN(c2ncnc3cc(N4CCOCC4)ccc23)C1 (stereo not drawn) [compound 50, [1-(7-Morpholin-4-yl-quinazolin-4-yl)-piperidin-3-yl]-thiazol-2-yl-methanone]
IC50 [4]: < 100 nM

Cc1cnc(CC2CCCN(c3ncnc4cc(N5CCOCC5)ccc34)C2)s1 (stereo not drawn) [compound 51, 4-[3-(5-Methyl-thiazol-2-ylmethyl)-piperidin-1-yl]-7-morpholin-4-yl-quinazoline]
IC50 [4]: < 100 nM

Cc1nc(CC2CCCN(c3ncnc4cc(N5CCOCC5)ccc34)C2)sc1C (stereo not drawn) [compound 52, 4-[3-(4,5-Dimethyl-thiazol-2-ylmethyl)-piperidin-1-yl]-7-morpholin-4-yl-quinazoline]
IC50 [4]: < 100 nM

OC(c1ncco1)C1CCCN(c2ncnc3cc(N4CCOCC4)ccc23)C1 (stereo not drawn) [compound 53, [1-(7-Morpholin-4-yl quinazolin-4-yl)-piperidin-3-yl]-oxazol-2-yl-methanol]
IC50 [4]: < 100 nM

Oc1nc(N2CCCCC2)c2ccc(N3CCOCC3)cc2n1 [compound 54, 7-Morpholin-4-yl-4-piperidin-1-yl-quinazolin-2-ol]
IC50 [4]: > 1000 nM

Cn1ccnc1C(O)C1CCCN(c2ncnc3cc(N4CCOCC4)ccc23)C1 (stereo not drawn) [compound 55, (1-Methyl-1H-imidazol-2-yl)-[1-(7-morpholin-4-yl-quinazolin-4-yl)-piperidin-3-yl]-methanol]
IC50 [4]: 100 to 500 nM

Cc1csc(CC2CCCN(c3ncnc4cc(N5CCOCC5)ccc34)C2)n1 (stereo not drawn) [compound 56, 4-[3-(4-Methyl-thiazol-2-ylmethyl)-piperidin-1-yl]-7-morpholin-4-yl-quinazoline]
IC50 [4]: < 100 nM

Nc1nc(N2CCCCC2)c2ccc(N3CCOCC3)cc2n1 [compound 57, 7-Morpholin-4-yl-4-piperidin-1-yl-quinazolin-2-ylamine]
IC50 [4]: 500 to 1000 nM

N#Cc1nc(N2CCCCC2)c2ccc(N3CCOCC3)cc2n1 [compound 58, 7-Morpholin-4-yl-4-piperidin-1-yl-quinazoline-2-carbonitrile]
IC50 [4]: 100 to 500 nM

O=C(NC1CCCN(c2nc(Cl)nc3cc(N4CCOCC4)ccc23)C1)c1cncs1 (stereo not drawn) [compound 59]
IC50 [4]: < 100 nM

O=C(NC1CCCN(c2nc(Cl)nc3cc(N4CCOCC4)ccc23)C1)c1nccs1 (stereo not drawn) [compound 60, N-[1-(2-Chloro-7-morpholin-4-yl-quinazolin-4-yl)-piperidin-3-yl]-thiazole-2-carboxamide]
IC50 [4]: < 100 nM

O=C(NC1CCCN(c2nc(Cl)nc3cc(N4CCOCC4)ccc23)C1)c1cscn1 (stereo not drawn) [compound 61]
IC50 [4]: 100 to 500 nM

O=C(NC1CCCN(c2nc(Cl)nc3cc(N4CCOCC4)ccc23)C1)c1cccs1 (stereo not drawn) [compound 64, N-[1-(2-Chloro-7-morpholin-4-yl-quinazolin-4-yl)-piperidin-3-yl]-thiophene-2-carboxamide]
IC50 [4]: 100 to 500 nM

O[C@@H](c1nccs1)C1CCCN(c2ncnc3cc(N4CCOCC4)ccc23)C1 (stereo partly drawn) [compound 65, (R)-[1-(7-Morpholin-4-ylquinazolin-4-yl)-piperidin-3-yl]-thiazol-2-yl-methanol]
IC50 [4]: < 100 nM

O[C@H](c1nccs1)C1CCCN(c2ncnc3cc(N4CCOCC4)ccc23)C1 (stereo partly drawn) [compound 66]
IC50 [4]: < 100 nM
